Laboratory results as given in patent publication US10350210B2, “EGFR and ALK dual inhibitor” (PRECEDO PHARMACEUTICALS CO., LTD, priority 2015, dated 2019).

Legend:
Assay type in all cases: cell-based
NCI-H1975 = assay: Growth of cancer cells (Cell Titer-Glo viability), NCI-H1975; details: Homo sapiens; NCI-H1975 (EGFR L858R/T790M double mutant), 72 hrs
Summary of the method: (§1)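 Cells are counted as viable by CellTiter-Glo chemiluminescence. Murine BaF3 lines depend on a stably transfected TEL-fused kinase after IL-3 withdrawal, and the NSCLC lines express mutant EGFR.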

PC-9 = assay: Growth of cancer cells (Cell Titer-Glo viability), PC-9; details: Homo sapiens; PC-9 (EGFR delE746_A750 mutant), 72 hrs
Summary of the method: as §1

NCI-H3122 = assay: Growth of cancer cells (Cell Titer-Glo viability), NCI-H3122; details: Homo sapiens; NCI-H3122 (expressing ALK gene), 72 hrs; read-out: GI50
BaF3 = assay: Cell growth (Cell Titer-Glo viability), BaF3; details: BaF3 mouse primary B cell, 72 hrs
BaF3-TEL-ALK = assay: Cell growth (Cell Titer-Glo viability), BaF3-TEL-ALK; details: Mus musculus; BaF3-TEL-ALK (stably expressing ALK kinase), 72 hrs
Summary of the method: (§2)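 Mouse BaF3 cells retrovirally transduced with human kinase fused to N-terminal TEL fragment, then IL-3 withdrawn so proliferation depends on the transgene. HCC827 carries EGFR del19 and NCI-H3255 EGFR L858R. Viable cells were quantified by CellTiter-Glo chemiluminescence on a microplate reader.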

BaF3-NPM-ALK = assay: Cell growth (Cell Titer-Glo viability), BaF3-NPM-ALK; details: Mus musculus; BaF3-NPM-ALK (stably expressing ALK kinase), 72 hrs
BaF3-TEL-INSR = assay: Cell growth (Cell Titer-Glo viability), BaF3-TEL-INSR; details: Mus musculus; BaF3-TEL-INSR (stably expressing INSR protein), 72 hrs
Source text: (§3) By testing the effect of the novel kinase inhibitors on the proliferation of cancer cells, the selectivity of the compounds of the present disclosure in inhibiting the proliferation of cancer cells was further assessed. In this example, human non-small cell lung cancer cell NCI-H1975 (expressing EGFR L858R/T790M double mutant gene), human skin squamous carcinoma cell A431 (expressing wild-type EGFR gene), non-small cell lung cancer NCI-H3255 (expressing EGFR L858R mutant gene), non-small cell lung cancer cell NCI-H3122 (expressing ALK gene), human non-small cell lung cancer cell A549 (expressing wild-type EGFR gene), human non-small cell lung cancer cell NCI-H2122 (expressing wild-type EGFR gene), human non-small cell lung cancer cell NCI-H460 (expressing wild-type EGFR gene), human non-small cell lung cancer cell PC-9 (expressing EGFR delE746_A750 mutant gene), Chinese hamster ovary cell CHO (Cricetulus griseus, hamster, Chinese, ovary), Chinese hamster lung cell CHL, human non-small cell lung cancer cell HCC827 (expressing mutant EGFR del19 gene), human lung adenocarcinoma cell HCC4006 (expressing mutant EGFR del19 gene), human non-small cell lung cancer cell NCI-H2228 (expressing wild-type ALK gene), and mouse primary B cell BaF3 were used, and the above cells were all purchased from ATCC (US). In addition, mouse BaF3-TEL-ALK (stably expressing ALK kinase), mouse BaF3-ALK-F1174L (stably expressing mutant ALK F1174L kinase), mouse BaF3-NPM-ALK (stably expressing ALK kinase), mouse BaF3-TEL-EGFR (stably expressing EGFR kinase), mouse BaF3-TEL-EGFR-T790M (stably expressing EGFR T790M mutant kinase), mouse BaF3-FL-EGFR-Del19 (stably expressing EGFR delE746_A750 mutant kinase), mouse BaF3-TEL-EGFR-L858R (stably expressing EGFR L858R mutant kinase), mouse BaF3-FL-EGFR-T790M-L858R (stably expressing EGFR T790M/L858R mutant kinase), mouse BaF3-TEL-INSR (stably expressing INSR protein), mouse BaF3-TEL-IGF1R (stably expressing IGF1R Protein), mouse BaF3-EML4-ALK (stably expressing EML4-ALK Protein), mouse BaF3-TEL-JAK3 (stably expressing JAK3 kinase protein), mouse BaF3-TEL-CSF1R (stably expressing CSF1R protein), and mouse BaF3-TEL-ALK-F1196M (stably expressing ALK F1196M mutant kinase) were also used in this example. The above cell lines were all established by our laboratory via the following process: kinase proteins or protein domain sequences of human ALK, ALK F1174L, EGFR, EGFR T790M, EGFR delE746_A750, EGFR L858, EGFR T790M/L858R, INSR, IGF1R, EML4-ALK, JAK3, CSF1R, ALK F1196M were amplified respectively by PCR, and were respectively inserted into MSCV-Puro vector (Clontech) with N-terminal TEL fragments and/or NPM fragments and/or TPR fragments; the resultants were stably transfected into mouse BaF3 cells by the means of retrovirus, and the IL-3 growth factors were removed, and eventually the ALK, ALK F1174L, EGFR, EGFR T790M, EGFR delE746_A750, EGFR L858, EGFR T790M/L858R, INSR, IGF1R, EML4-ALK, JAK3, CSF1R, ALK F1196M-transferred protein dependent cell lines were obtained.
(§4) The number of viable cells was determined quantitatively by a microplate reader using Cell Titer-Glo® (Promega, US) chemiluminescence cell viability assay kit.

BaF3-TEL-ALK-F1196M = assay: Cell growth (Cell Titer-Glo viability), BaF3-TEL-ALK-F1196M; details: Mus musculus; BaF3-TEL-ALK-F1196M (ALK F1196M mutant kinase), 72 hrs
Source text: (§5) By testing the effect of the novel kinase inhibitors on the proliferation of cancer cells, the selectivity of the compounds of the present disclosure in inhibiting the proliferation of cancer cells was further assessed. In this example, human non-small cell lung cancer cell NCI-H1975 (expressing EGFR L858R/T790M double mutant gene), human skin squamous carcinoma cell A431 (expressing wild-type EGFR gene), non-small cell lung cancer NCI-H3255 (expressing EGFR L858R mutant gene), non-small cell lung cancer cell NCI-H3122 (expressing ALK gene), human non-small cell lung cancer cell A549 (expressing wild-type EGFR gene), human non-small cell lung cancer cell NCI-H2122 (expressing wild-type EGFR gene), human non-small cell lung cancer cell NCI-H460 (expressing wild-type EGFR gene), human non-small cell lung cancer cell PC-9 (expressing EGFR delE746_A750 mutant gene), Chinese hamster ovary cell CHO (Cricetulus griseus, hamster, Chinese, ovary), Chinese hamster lung cell CHL, human non-small cell lung cancer cell HCC827 (expressing mutant EGFR del19 gene), human lung adenocarcinoma cell HCC4006 (expressing mutant EGFR del19 gene), human non-small cell lung cancer cell NCI-H2228 (expressing wild-type ALK gene), and mouse primary B cell BaF3 were used, and the above cells were all purchased from ATCC (US). […]
as §4

A549 = assay: Growth of cancer cells (Cell Titer-Glo viability), A549; details: Homo sapiens; A549 (wild-type EGFR), 72 hrs
HCC827 = assay: Growth of cancer cells (Cell Titer-Glo viability), HCC827; details: Homo sapiens; HCC827 (mutant EGFR del19), 72 hrs
Summary of the method: as §2

BaF3-TEL-EGFR-T790M = assay: Cell growth (Cell Titer-Glo viability), BaF3-TEL-EGFR-T790M; details: Mus musculus; BaF3-TEL-EGFR-T790M (EGFR T790M mutant kinase), 72 hrs
Summary of the method: as §2

BaF3-TEL-IGF1R = assay: Cell growth (Cell Titer-Glo viability), BaF3-TEL-IGF1R; details: Mus musculus; BaF3-TEL-IGF1R (stably expressing IGF1R protein), 72 hrs
Source text: as §5, with “(US). In addition, mouse BaF3-TEL-ALK (stably expressing ALK kinase), mouse BaF3-ALK-F1174L (stably expressing mutant ALK F1174L kinase), mouse BaF3-NPM-ALK (stably expressing ALK kinase), mouse BaF3-TEL-EGFR (stably expressing EGFR kinase), mouse BaF3-TEL-EGFR-T790M (stably expressing EGFR T790M mutant kinase), mouse BaF3-FL-EGFR-Del19 (stably expressing EGFR delE746_A750 mutant kinase), mouse BaF3-TEL-EGFR-L858R (stably expressing EGFR L858R mutant kinase), mouse BaF3-FL-EGFR-T790M-L858R (stably expressing EGFR T790M/L858R mutant kinase), mouse BaF3-TEL-INSR (stably expressing INSR protein), mouse BaF3-TEL-IGF1R (stably expressing IGF1R Protein), mouse BaF3-EML4-ALK (stably expressing EML4-ALK Protein), mouse BaF3-TEL-JAK3 (stably expressing JAK3 kinase protein), mouse BaF3-TEL-CSF1R (stably expressing CSF1R protein), and mouse BaF3-TEL-ALK-F1196M (stably expressing ALK F1196M mutant kinase) were also used in this example.” for “(US).”
as §4

BaF3-EML4-ALK = assay: Cell growth (Cell Titer-Glo viability), BaF3-EML4-ALK; details: Mus musculus, Ba/F3 EML4-ALK; BaF3-EML4-ALK (stably expressing EML4-ALK protein), 72 hrs
Source text: as §3, §4

BaF3-TEL-JAK3 = assay: Cell growth (Cell Titer-Glo viability), BaF3-TEL-JAK3; details: Mus musculus; BaF3-TEL-JAK3 (stably expressing JAK3 kinase protein), 72 hrs
Source text: as §3, §4

BaF3-TEL-CSF1R = assay: Cell growth (Cell Titer-Glo viability), BaF3-TEL-CSF1R; details: Mus musculus; BaF3-TEL-CSF1R (stably expressing CSF1R protein), 72 hrs
Source text: as §5, with “(US). In addition, mouse BaF3-TEL-ALK (stably expressing ALK kinase), mouse BaF3-ALK-F1174L (stably expressing mutant ALK F1174L kinase), mouse BaF3-NPM-ALK (stably expressing ALK kinase), mouse BaF3-TEL-EGFR (stably expressing EGFR kinase), mouse BaF3-TEL-EGFR-T790M (stably expressing EGFR T790M mutant kinase), mouse BaF3-FL-EGFR-Del19 (stably expressing EGFR delE746_A750 mutant kinase), mouse BaF3-TEL-EGFR-L858R (stably expressing EGFR L858R mutant kinase), mouse BaF3-FL-EGFR-T790M-L858R (stably expressing EGFR T790M/L858R mutant kinase), mouse BaF3-TEL-INSR (stably expressing INSR protein), mouse BaF3-TEL-IGF1R (stably expressing IGF1R Protein), mouse BaF3-EML4-ALK (stably expressing EML4-ALK Protein), mouse BaF3-TEL-JAK3 (stably expressing JAK3 kinase protein), mouse BaF3-TEL-CSF1R (stably expressing CSF1R protein), and mouse BaF3-TEL-ALK-F1196M (stably expressing ALK F1196M mutant kinase) were also used in this example.” for “(US).”
as §4

Row | SMILES | GI50 (NCI-H1975) | GI50 (PC-9) | GI50 (NCI-H3122) | GI50 (BaF3) | GI50 (BaF3-TEL-ALK) | GI50 (BaF3-NPM-ALK) | GI50 (BaF3-TEL-INSR) | GI50 (BaF3-TEL-ALK-F1196M) | GI50 (A549) | GI50 (HCC827) | GI50 (BaF3-TEL-EGFR-T790M) | GI50 (BaF3-TEL-IGF1R) | GI50 (BaF3-EML4-ALK) | GI50 (BaF3-TEL-JAK3) | GI50 (BaF3-TEL-CSF1R)
1 | C=CC(=O)Nc1cc(Nc2ncc(C)c(Nc3ccccc3S(=O)(=O)C(C)C)n2)c(OC)cc1N1CCN(CC)CC1 [Compound 84, N-(2-(4-ethylpiperazin-1-yl)-5-(4-(2-(isopropylsulfonyl)phenylamino)-5-methylpyrimidin-2-ylamino)-4-methoxyphenyl)acrylamide] | 43 nM | 6 nM | 2 nM | 6600 nM | 1 nM | 2 nM | 4 nM | 2 nM |  |  |  |  |  |  | 
2 | C=CC(=O)Nc1cc(Nc2ncc(Cl)c(Nc3ccccc3C(=O)NC)n2)c(OC)cc1N1CCC(N2CCOCC2)CC1 [Compound 67, 2-(2-(5-acrylamido-2-methoxy-4-(4-morpholinylpiperidin-1-yl)phenylamino)-5-chloropyrimidin-4-ylamino)-N-methylbenzamide] | 14 nM | 9.6 nM | 4.4 nM | 5400 nM | 13 nM |  | 1.8 nM |  | 450 nM | 14 nM | 28 nM | 7.7 nM | 35 nM | 110 nM | 
3 | C=CC(=O)Nc1cc(Nc2ncc(Cl)c(Nc3ccccc3C(=O)NC)n2)c(OC)cc1N1CCN(C2CCCCC2)CC1 [Compound 70, 2-(2-(5-acrylamido-4-(4-cyclohexylpiperazin-1-yl)-2-methoxyphenylamino)-5-chloropyrimidin-4-ylamino)-N-methylbenzamide] | 65 nM | 35 nM | 7.6 nM | 1000 nM |  |  | < 0.3 nM |  |  | 140 nM |  |  | 4.5 nM | 58 nM | 170 nM
4 | C=CC(=O)Nc1cc(Nc2ncc(Cl)c(Nc3ccccc3C(=O)NC)n2)c(OC)cc1N1CCN(C)CC1 [Compound 64, 2-(2-(5-acrylamido-2-methoxy-4-(4-methylpiperazin-1-yl)phenylamino)-5-chloropyrimidin-4-ylamino)-N-methylbenzamide] | 50 nM | 7.2 nM | 4.4 nM | 2900 nM | 10 nM |  | 2.3 nM |  | 370 nM | 13 nM | 28 nM | 14 nM | 13 nM | 59 nM | 
5 | C=CC(=O)Nc1cc(Nc2ncc(Cl)c(Nc3ccccc3C(=O)NC)n2)c(OC)cc1N1CCN(C2CCN(C)CC2)CC1 [Compound 72, 2-(2-(5-acrylamido-2-methoxy-4-(4-(1-methylpiperidin-4-yl)piperazin-1-yl)phenylamino)-5-chloropyrimidin-4-ylamino)-N-methylbenzamide] | 120 nM | 120 nM | 18 nM | 1700 nM |  |  | 49 nM |  |  | 210 nM |  |  | 71 nM | 290 nM | 370 nM
